Reference: patent US20170311602A1, “METHODS AND COMPOSITIONS FOR THE CONTROL OF FUNGAL PATHOGENS IN CROP PLANTS” (Monsanto Technology LLC, priority 2014, published 2017)

Columns and labels:
Assay type in all cases: in vivo
[1] = test system: corn stalk rot susceptible hybrids; test: Greenhouse seedling emergence trial for seed safety of treated corn seed; details: number of plants emerged at day 7, five plants per pot
Protocol: Seeds treated with chemistry were evaluated for seed safety in greenhouse emergence trials. Seed treatment active ingredients were combined in a slurry mix with colorant, polymer, and water at the recommended rates and allowed to mix thoroughly. Using a Gustafson BMC lab treater the seed batch was deposited in the BMC coater and treatment slurry was injected and allowed to tumble for 35-40 seconds before being ejected into a bulk collection bin and transferred to a paper storage bag. Standard corn stalk rot susceptible hybrids were planted using six pot replicates of five plants per pot. The treatments were randomized in RCBD, blocked by GH watering trays. Planting media consisted of 3.5 inch pots with the following media: US10 soil and 50/50 mix of US10/REDIEARTH. Replicates were placed perpendicular to the greenhouse temperature gradient.
Initial daily emergence counts at spike emergence of first treatment, continued until emergence was complete in untreated control (7-10 days after planting). The final stand was calculated as the number of plants emerged at day 7. The stand AUC was calculated as the area under the emergence curve.

[2] = test system: Colletotrichum graminicola; test: Field trial, Anthracnose stalk rot disease severity after stalk wounding and inoculation; details: 60 g ai/100 kg seed; Acceleron 2013 base; N=3 locations; control (surface wounding) 2.9
Protocol: Field trials were conducted to evaluate seed treatments for efficacy and yield. Field plots contained a single row or up to 4 rows by 20-40 feet. Smallest plot size was a single row by 20 feet. Four replications were typically used. The hybrids selected for the study were typically moderately susceptible to Anthracnose stalk rot, which indicates a susceptibility rating of at least 5-6 on a 9 point scale (1=highly resistant, 9=highly susceptible). […] The typical growth stage for field inoculation was […]). For disease ratings, stalks were surface wounded using implements with needles that either provided shallow scratches on the surface of the stalk ( 1 cm depth) or shallow piercing wounds ( 1 cm depth). Concurrent with surface wounding, a spore suspension of Colletotrichum graminicola (C. graminicola) conidia is sprayed onto wounded area or injected into shallow wounds. The total volume of spore suspension applied was in the range of 1-5 mL. […] Disease development was monitored in control treatments and disease evaluations were usually targeted when disease index rating reached approximately 5 on a 1-9 scale in control treatments. […] 10 stalks were assessed per plot. […] The stalks were split and the number of internodes with disease symptoms was counted starting at the internode above top node with brace roots (disease incidence rating). […]

[3] = test system: Colletotrichum graminicola; test: Field yield trial, seed treatments in inoculated soil plots; details: Acceleron 2013 base, N=10 locations, control 164.4
Protocol: (§1) Field trials were conducted to evaluate seed treatments for efficacy and yield. Field plots contained a single row or up to 4 rows by 20-40 feet. Smallest plot size was a single row by 20 feet. Four replications were typically used. The hybrids selected for the study were typically moderately susceptible to Anthracnose stalk rot, which indicates a susceptibility rating of at least 5-6 on a 9 point scale (1=highly resistant, 9=highly susceptible).
(§2) The typical growth stage for field inoculation was VT/R1 (tasseling/silking). For disease ratings, stalks were surface wounded using implements with needles that either provided shallow scratches on the surface of the stalk (˜1 cm depth) or shallow piercing wounds (˜1 cm depth). Concurrent with surface wounding, a spore suspension of Colletotrichum graminicola (C. graminicola) conidia is sprayed onto wounded area or injected into shallow wounds. The total volume of spore suspension applied was in the range of 1-5 mL. Yield trials were soil inoculated or non-inoculated (natural pressure). For soil inoculation the fungus was grown on sorghum seed and the infested sorghum seed was placed in furrow at planting of the trials.
(§3) Yield was determined in the following manner. The center two rows of the plot were harvested or both rows if it was a two row plot. The weight and percent moisture were recorded for each plot grain sample. The recorded plot weight and % moisture were converted to standardized weight using standard moisture of 15.5%. Each plot was normalized to kg/ha by interpolating plot yield area to hectares. Yield in bushels/acre (bu/A) was determined by interpolating plot yield area to acre and conversion to bu/A using a standard corn bushel weight of 56 lb.
All seeds, including control, were treated with Acceleron 2013 commercial seed treatment (disease control+insect control) as a base. N=10 locations.

corn = test: Field yield trials, seed treatments in non-inoculated soil plots (natural pressure); details: Acceleron 2013 base; for Yield Trial 1: N=22 locations, control 174.9; for Yield Trial 2: N=24 locations, control 174.4
Protocol: as §1, §2, §3
All seeds, including control, were treated with Acceleron 2013 commercial seed treatment (disease+insect control) as a base. N=22 locations.
All seeds, including control, were treated with Acceleron 2013 commercial seed treatment (disease+insect control) as a base. N=24 locations.

Fusarium verticillioides = test: Tray seedling test, efficacy of seed treatment against Fusarium verticillioides; details: FS100, 30 g ai/100 kg seeds; untreated (% damage) 26%
Protocol: (§4) The seed tested (Amadeo harvest 2008, TKW 331,3) was seeded in trays 20×20×6 cm, with 9 holes for water release in field soil/quartz sand mix (1:1). Two repetitions with 25 kernels each were treated using standard seed treatment techniques. Each tray contained a single isolate of either Fusarium verticillioides G679, Fusarium verticillioides S039/07, Fusarium verticillioides S149/08, Colletotrichum graminicola BF0911 or Colletotrichum graminicola CG-1. The fungi were grown on sterile wheat grains. Thereafter, wheat grains were roughly ground after incubation and dried. For inoculation, either 5 or 15 ml of inoculum were scattered between the seeds at sowing, followed by incubation for 7 days at 10° C., followed by 7 days 24° C./15° C. (day/night period). Plants were evaluated for a) initial emergence (number of plants), b) final emergence (number of plants), c) disease level. Seedlings were classified in 3 categories: low, moderate or sevre necrosis. The disease score was calculated as follows: […]

[4] = test system: Colletotrichum graminicola; test: Tray seedling test, efficacy of seed treatment against Colletotrichum graminicola; details: FS100, 30 g ai/100 kg seeds; untreated (% damage) 22%
Protocol: as §4

## OC(Cc1ccccc1Cl)(Cn1nc[nH]c1=S)C1(Cl)CC1 (centres unmarked) [Prothioconazole, prothioconazole]
[1]; 25 g ai/100 kg seed
  Final Stand: 4.88
[1]; 50 g ai/100 kg seed
  Final Stand: 4.75
[1]; 100 g ai/100 kg seed
  Final Stand: 4.58
[1]; 200 g ai/100 kg seed
  Final Stand: 4.92
[2]
  Disease Severity (nodes ≧50% necrosis): 1.6 nodes ≧50% necrosis
[3]; 30 g/100 Kg seed
  Yield: 172.4 bu/A
[3]; 60 g/100 Kg seed
  Yield: 173.6 bu/A
[3]; 90 g/100 Kg seed
  Yield: 174 bu/A
corn; 30 g/100 Kg seed
  Yield Trial 1: 177.1 Bu/acre
  Yield Trial 2: 176.6 Bu/acre
corn; 60 g/100 Kg seed
  Yield Trial 1: 178.6 Bu/acre
  Yield Trial 2: 178.3 Bu/acre
corn; 90 g/100 Kg seed
  Yield Trial 2: 175.2 Bu/acre
Fusarium verticillioides
  Efficacy against Fusarium verticillioides (av. of 3 isolates): 47 % Abbott
[4]
  Efficacy against Colletotrichum graminicola (av. 2 isolates): 51 % Abbott

## CO/N=C(/C1=NOCCO1)c1ccccc1Oc1ncnc(Oc2ccccc2Cl)c1F [Fluoxastrobin, fluoxastrobin]
[1]; 25 g ai/100 kg seed
  Final Stand: 4.79
[1]; 50 g ai/100 kg seed
  Final Stand: 4.67
[1]; 100 g ai/100 kg seed
  Final Stand: 4.63
[1]; 200 g ai/100 kg seed
  Final Stand: 4.83
[1]; 300 g ai/100 kg seed
  Final Stand: 4.58
[1]; 400 g ai/100 kg seed
  Final Stand: 4.99
[2]
  Disease Severity (nodes ≧50% necrosis): 1.5 nodes ≧50% necrosis
[3]; 30 g/100 Kg seed
  Yield: 169.4 bu/A
[3]; 60 g/100 Kg seed
  Yield: 172 bu/A
[3]; 90 g/100 Kg seed
  Yield: 171.8 bu/A
corn; 30 g/100 Kg seed
  Yield Trial 1: 175.9 Bu/acre
  Yield Trial 2: 175.9 Bu/acre
corn; 60 g/100 Kg seed
  Yield Trial 1: 179.1 Bu/acre
  Yield Trial 2: 177.6 Bu/acre
corn; 90 g/100 Kg seed
  Yield Trial 2: 176.3 Bu/acre
Fusarium verticillioides
  Efficacy against Fusarium verticillioides (av. of 3 isolates): 3 % Abbott
[4]
  Efficacy against Colletotrichum graminicola (av. 2 isolates): 88 % Abbott
